Results reported in the NIST ThermoML archive (doi:10.1021/je049953t).
± gives the expanded uncertainty stated by the source.

Tests used:
[1] = 298.15 K; 101.33 kPa; Liquid
[2] = excess molar enthalpy (molar enthalpy of mixing); xn = mol fraction of the nth substance listed; settings: 101.33 kPa, Liquid, Flow calorimetry

CN(C)C=O [dimethylformamide]
mass density [1]: 943.81 ± 0.15 kg/m3

CCCC(C)C [2-methylpentane]
mass density [1]: 648.45 ± 0.44 kg/m3

CCCC(C)C [2-methylpentane] + CN(C)C=O
excess molar enthalpy ([2]; 298.15 K, x1 = 0.03): 0.0551 ± 0.00148 kcal/mol
excess molar enthalpy ([2]; 298.15 K, x1 = 0.0611): 0.105 ± 0.00239 kcal/mol
excess molar enthalpy ([2]; 298.15 K, x1 = 0.0613): 0.105 ± 0.00239 kcal/mol
excess molar enthalpy ([2]; 298.15 K, x1 = 0.094): 0.154 ± 0.00335 kcal/mol
excess molar enthalpy ([2]; 298.15 K, x1 = 0.9462): 0.112 ± 0.00239 kcal/mol
excess molar enthalpy ([2]; 313.15 K, x1 = 0.03): 0.0551 ± 0.00148 kcal/mol
excess molar enthalpy ([2]; 313.15 K, x1 = 0.0611): 0.107 ± 0.00239 kcal/mol
excess molar enthalpy ([2]; 313.15 K, x1 = 0.0613): 0.108 ± 0.00239 kcal/mol
excess molar enthalpy ([2]; 313.15 K, x1 = 0.094): 0.157 ± 0.00359 kcal/mol
excess molar enthalpy ([2]; 313.15 K, x1 = 0.1281): 0.202 ± 0.0043 kcal/mol
excess molar enthalpy ([2]; 313.15 K, x1 = 0.9178): 0.174 ± 0.00382 kcal/mol
excess molar enthalpy ([2]; 313.15 K, x1 = 0.9462): 0.113 ± 0.00263 kcal/mol
excess molar enthalpy ([2]; 313.15 K, x1 = 0.9469): 0.11 ± 0.00263 kcal/mol
